This assay relates to mouse Sp2/0 cells. Nature of the assay: CTL assay: 51Cr release from target Sp2/0 cells treated with antibody fragments or peptide, with p53 peptide-specific CTLs. Type of assay: cell-based. Particulars: Sp2/0 target cells, treated 4 hours at 37° C. with antibody fragment dilutions or 10 μg/ml peptide.

These results are taken from US20060099216A1, “Peptide delivery” (Biovation Limited, priority 1994, published 2006).

Regarding “KYICNSSCM (p53 CTL reactive peptide) [p53 peptide only]”, the “% Specific 51Cr Release at E/T Ratio 5:1” value (effector:target 5:1) worked out at 41%. Further, where the note is “effector:target 10:1”, the “% Specific 51Cr Release at E/T Ratio 10:1” value was 57%. For the same sequence, the “% Specific 51Cr Release at E/T Ratio 20:1” value (effector:target 20:1) is 46%.
